Measurements from patent publication US10023593B2, “ALK kinase inhibitor, and preparation method and uses thereof” (BEIJING PEARL BIOTECHNOLOGY LIMITED LIABILITY COMPANY, priority 2014, dated 2018).

What was measured:
Wild Type ALK kinase = target: T1, Wild Type ALK kinase (Homo sapiens, UniProt Q9UM73); experiment: HTRF KinEASE-TK assay, inhibitory activity on wild type ALK kinase; type: biochemical; settings: wild type ALK 1 ng/μl, substrate 1 μM, 30° C. 35 minutes, read-out: Inhibition on ALK kinases (wildtype), IC50
T1 construct: purchased Sino-US Crown Bioscience, Inc. batch number ALK 20110607
T1 sequence (Q9UM73 19-1620): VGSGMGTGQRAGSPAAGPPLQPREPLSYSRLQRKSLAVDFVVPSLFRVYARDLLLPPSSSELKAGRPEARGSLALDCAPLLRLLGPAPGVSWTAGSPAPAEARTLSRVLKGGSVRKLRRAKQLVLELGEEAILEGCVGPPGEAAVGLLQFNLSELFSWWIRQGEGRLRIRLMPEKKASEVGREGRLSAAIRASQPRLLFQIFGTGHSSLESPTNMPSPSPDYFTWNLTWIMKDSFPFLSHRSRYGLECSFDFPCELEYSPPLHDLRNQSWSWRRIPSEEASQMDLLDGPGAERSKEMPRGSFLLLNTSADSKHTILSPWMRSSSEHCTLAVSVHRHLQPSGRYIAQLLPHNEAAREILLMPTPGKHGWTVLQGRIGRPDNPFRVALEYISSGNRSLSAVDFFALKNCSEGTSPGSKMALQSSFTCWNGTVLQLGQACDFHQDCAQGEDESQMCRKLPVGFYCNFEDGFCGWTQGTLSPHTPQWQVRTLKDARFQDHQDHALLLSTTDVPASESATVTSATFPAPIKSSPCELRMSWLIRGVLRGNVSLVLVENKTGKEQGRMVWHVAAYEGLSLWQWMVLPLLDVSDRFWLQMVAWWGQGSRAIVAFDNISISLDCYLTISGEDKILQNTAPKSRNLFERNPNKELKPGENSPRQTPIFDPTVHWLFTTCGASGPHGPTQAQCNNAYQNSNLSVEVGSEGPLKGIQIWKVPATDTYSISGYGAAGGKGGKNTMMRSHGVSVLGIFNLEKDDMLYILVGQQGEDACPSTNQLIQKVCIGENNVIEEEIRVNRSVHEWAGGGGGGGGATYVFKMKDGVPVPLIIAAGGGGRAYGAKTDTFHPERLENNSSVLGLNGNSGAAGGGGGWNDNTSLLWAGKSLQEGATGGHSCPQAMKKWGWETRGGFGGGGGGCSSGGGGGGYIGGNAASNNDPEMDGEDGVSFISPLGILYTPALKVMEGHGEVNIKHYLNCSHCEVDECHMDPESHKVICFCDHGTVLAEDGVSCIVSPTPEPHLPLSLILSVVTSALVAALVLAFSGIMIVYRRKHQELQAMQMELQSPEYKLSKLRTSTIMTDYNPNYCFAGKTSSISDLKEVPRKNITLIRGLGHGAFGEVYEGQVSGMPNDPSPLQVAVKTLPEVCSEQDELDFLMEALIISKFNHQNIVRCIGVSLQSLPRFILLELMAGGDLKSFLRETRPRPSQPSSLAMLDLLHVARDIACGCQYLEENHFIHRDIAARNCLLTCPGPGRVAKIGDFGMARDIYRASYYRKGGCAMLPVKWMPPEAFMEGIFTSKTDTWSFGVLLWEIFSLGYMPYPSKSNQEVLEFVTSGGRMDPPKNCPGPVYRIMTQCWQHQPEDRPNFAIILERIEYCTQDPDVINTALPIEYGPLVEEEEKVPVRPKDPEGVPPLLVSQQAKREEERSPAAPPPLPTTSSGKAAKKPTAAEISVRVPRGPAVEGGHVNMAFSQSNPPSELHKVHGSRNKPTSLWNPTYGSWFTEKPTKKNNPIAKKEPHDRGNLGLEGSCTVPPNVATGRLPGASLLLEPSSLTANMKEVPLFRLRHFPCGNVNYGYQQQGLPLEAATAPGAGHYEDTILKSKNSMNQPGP
In short: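 ALK kinase at 1 ng/μl and substrate at 1 μM were reacted with compound (1% DMSO) in buffer with 5 mM MgCl2 and 1 mM DTT for 35 min at 30 °C. HTRF detection used the 665/615 ratio, normalised to no-compound wells and to 10.4 μM LDK-378 wells. IC50 came from a concentration-response fit.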

NCI-H2228 cell line = experiment: CellTiter-Glo cell proliferation inhibition on NCI-H2228 cell line; type: cell-based; settings: Homo sapiens, NCI-H2228 cells, 5000 cells/well, 4 days drug treatment
In short: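 NCI-H2228 cells, 5000/well in RPMI-1640 + 10% FBS, treated with compounds 2 h after seeding (0.5% DMSO final) for 4 days at 37° C. Viability by CellTiter-Glo luminescence; inhibition relative to DMSO control, IC50 from curve fit.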

Row | SMILES | IC50 (Wild Type ALK kinase) [nM] | IC50 (NCI-H2228 cell line; NCI-H2228, 96 h) [nM] | IC50 (NCI-H2228 cell line; 96 h) [nM]
1 | Cc1cc(Nc2ncc(Cl)c(Nc3cn(C)nc3S(=O)(=O)C(C)C)n2)c(OC2CC2)cc1OC1CCN(C)CC1 [Final product 111] | 3 | 188 | –
2 | CCN1CCC(c2cc(OC(C)C)c(Nc3ncc(Cl)c(Nc4cn(C)nc4S(=O)(=O)C(C)C)n3)cc2C)CC1 [Final product 118] | 5 | 101 | –
3 | Cc1cc(Nc2ncc(Cl)c(Nc3cn(C)nc3S(=O)(=O)C(C)C)n2)c(OC(C)C)cc1C1CCN(C(C)C)CC1 [Final product 126] | 7 | 142 | –
4 | Cc1cc(Nc2ncc(Cl)c(Nc3cn(C)nc3S(=O)(=O)CC(C)C)n2)c(OC2CC2)cc1C1CCN(C(C)C)CC1 [Final product 127] | 5 | 142 | –
5 | Cc1cc(Nc2ncc(Cl)c(Nc3cn(C)nc3S(=O)(=O)C(C)C)n2)c(OC2CC2)cc1C1CCN(CCO)CC1 [Final product 133, 2-(4-(4-(5-chloro-4-(3-(isopropylsulfonyl)-1-methyl-1H-pyrazol-4-amino)pyrimidin-2-amino)-5-cyclopropoxy-2-methylphenyl)piperidin-1-yl) ethanol] | 2 | – | 41
6 | CCOc1cc(C2CCN(CCO)CC2)c(C)cc1Nc1ncc(Cl)c(Nc2cn(C)nc2S(=O)(=O)C(C)C)n1 [Final product 135] | 3 | 33 | –
7 | Cc1cc(Nc2ncc(Cl)c(Nc3cn(C)nc3S(=O)(=O)CC(C)C)n2)c(OC2CC2)cc1C1CCN(CCO)CC1 [Final product 137] | 4 | 103 | –
8 | Cc1cc(Nc2ncc(Cl)c(Nc3cn(C)nc3S(=O)(=O)C(C)C)n2)c(OC2CCC2)cc1C1CCN(CCO)CC1 [Final product 138] | 4 | 60 | –
9 | Cc1cc(Nc2ncc(Cl)c(Nc3cn(C)nc3S(=O)(=O)C(C)C)n2)c(OC2CC2)cc1C1CCN(CCN(C)C)CC1 [Final product 146, 5-chloro-N^2-(2-cyclopropoxy-4-(1-(2-(dimethylamino)ethyl)piperidin-4-yl)-5-methylphenyl)-N^4-(3-(isopropylsulfonyl)-1-methyl-1H-pyrazol-4-yl)-pyrimidin-2,4-diamine] | 2 | – | 199
10 | Cc1cc(Nc2ncc(Cl)c(Nc3cn(C)nc3S(=O)(=O)C(C)C)n2)c(OC(C)C)cc1C1CCN(C(C)(C)CO)CC1 [Final product 152] | 4 | 86 | –

Continued, in another order:

Row | IC50 (Wild Type ALK kinase) [nM] | IC50 (NCI-H2228 cell line; NCI-H2228, 96 h) [nM] | SMILES | IC50 (NCI-H2228 cell line; 96 h) [nM]
11 | 10 | 44 | Cc1cc(Nc2ncc(Cl)c(Nc3cn(C)nc3S(=O)(=O)C(C)C)n2)c(OC2CC2)cc1C1CCN(C2COC2)CC1 [Final product 156] | –
12 | 7 | 142 | Cc1cc(Nc2ncc(Cl)c(Nc3cn(C)nc3S(=O)(=O)C(C)C)n2)c(OC2CC2)cc1C1CCN(C2CC2)CC1 [Final product 157] | –
13 | 9 | 43 | Cc1cc(Nc2ncc(Cl)c(Nc3cn(C)nc3S(=O)(=O)C(C)C)n2)c(OC2CC2)cc1C1CCN(C=O)CC1 [Final product 159, 4-(4-(5-chloro-4-(3-(isopropylsulfonyl)-1-methyl-1H-pyrazol-4-amino)pyrimidin-2-amino)-5-cyclopropoxy-2-methylphenyl)piperidin-1-formaldehyde] | –
14 | 7 | 35 | CC(=O)N1CCC(c2cc(OC3CC3)c(Nc3ncc(Cl)c(Nc4cn(C)nc4S(=O)(=O)C(C)C)n3)cc2C)CC1 [Final product 160, 1-acetyl-4-(4-(5-chloro-4-(3-(isopropylsulfonyl)-1-methyl-1H-pyrazol-4-amino)pyrimidin-2-amine)-5-cyclopropoxy-2-methylphenyl)piperidine] | –
15 | 32 | 47 | Cc1cc(Nc2ncc(Cl)c(Nc3cn(C)nc3S(=O)(=O)C(C)C)n2)c(OC2CC2)cc1C1CCN(C(=O)C(F)(F)F)CC1 [Final product 161, 1-trifluoroacetyl-4-(4-(5-chloro-4-(3-(isopropylsulfonyl)-1-methyl-1H-pyrazol-4-amino)pyrimidin-2-amine)-5-cyclopropoxy-2-methylphenyl)piperidine] | –
